Where “and” joins values, the source holds several entries; their conditions need not be identical. Identical values can stand only once.
Tested on: 171881-019-R-J1-PDC tumor spheroid viability
Experiment: Anticancer human tumor 171881-019-R-J1-PDC patient-derived invasive breast carcinoma cell line growth inhibition [PI3K]
Details: spheroids with HUVEC and MSC; for viability, T/C: stronger effect = lower value
Text: Combinatorial screen of targeted agents with the PI3K inhibitors inavolisib, alpelisib, duvelisib, and copanlisib in multi-cell type tumor spheroids
A high-throughput screen of multi-cell type tumor spheroids was designed to identify active combinations of targeted small molecules and PI3K pathway inhibitors. Complex spheroids include a stromal component modeled by human endothelial cells (HUVEC) and fibroblasts modeled by human mesenchymal stem cells (MSCs). The concentration ranges selected for each drug and investigational agent were based upon clinically achievable concentrations if the clinical Cmax of the agent was known.
Compounds. The drugs and investigational agents: inavolisib (NSC800729), alpelisib (NSC765974), duvelisib (NSC772469), copanlisib (NSC816437), ipatasertib (NSC767898), afuresertib (NSC778305), talazoparib (NSC767125), sapanisertib (NSC764658), selumetinib (NSC741078), tovorafenib (DAY101, NSC766906), vemurafenib (NSC761431), ravoxertinib (NSC781343), sotorasib (NSC818433), MRTX1133 (NSC 836407), abemaciclib (NSC 768073), palbociclib (NSC758247), venetoclax (NSC 766270), SY5609 (NSC837396), enzalutamide (NSC755605), and darolutamide (NSC825331), were obtained from the National Cancer Institute (NCI) Developmental Therapeutics Program Chemical Repository. The FDA-approved anticancer drug set is available from the NCI Developmental Therapeutics Program. […] The stock solutions were prepared in dimethyl sulfoxide (DMSO, Sigma-Aldrich, St. Louis, MO, cat. D2650) at 800-fold the tested concentration and stored at -70 degrees C prior to their use. All drugs and investigational agents were tested over a range starting from a high concentration at or near the clinical Cmax and decreasing in half-log increments. If the clinical Cmax for an agent had not been determined, the highest concentration tested was 10 microM.
Cell Culture. All cells were maintained in an incubator at 37 degrees C and 5% CO2 with 95% humidity. The PDC lines were cultured according to standard operating procedures established by the NCI PDMR (https://pdmr.cancer.gov/sops/default.htm). All PDCs were thawed and cultured in Matrigel-coated flasks prepared with a working solution of 1X Ham's F-12 nutrient mix, without supplementation (Invitrogen, Waltham, MA, cat. 11765054), 100 U/mL penicillin-streptomycin (Invitrogen, cat. 15140122), and 2.5% Matrigel (Corning Inc., Corning, NY, cat. 354248) for the first three passages. The 354836-022-R-J1-PDC, 475296-252-R-J1-PDC, and 997726-040-R-J2-PDC lines were cultured in 6A media, which includes advanced DMEM/F-12 (Thermo Fisher Scientific, cat. 12634028), 10 mM HEPES (Thermo Fisher Scientific, cat. 15630080), 1X GlutaMAX supplement (Thermo Fisher Scientific, cat. 35050061), 0.1 mg/mL primocin (InvivoGen, San Diego, CA, cat. ant-pm-2), 10% defined fetal bovine serum, heat inactivated (HyClone Laboratories Inc., Logan, UT, cat. SH30070.03HI), 50% L-WRN conditioned media (ATCC, cat. CRL-3276), 1.25 mM N-Acetyl-L-cysteine (Sigma-Aldrich, cat. A9165), 10 mM nicotinamide (Sigma-Aldrich, cat. N0636), 1X B-27 supplement (Thermo Fisher Scientific, cat. 17504044), 1X N-2 supplement (Thermo Fisher Scientific, cat. 17502048), and 10 microM Y-27632 dihydrochloride (Tocris Bioscience, Bristol, United Kingdom, cat. 1254). The 624824-186-R-J2-PDC line was cultured in 6C/Colon 1B media, which includes all 6A media components plus 50 ng/mL human EGF recombinant protein (Thermo Fisher Scientific, cat. PHG0311). […]
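Note: spheroids exposed to compound for 7 days before viability read.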
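Throughout, for viability, T/C: 100% = DMSO vehicle-treated spheroids.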

In the case of `C#Cc1c(F)ccc2cc(O)cc(-c3ncc4c(N5CC6CCC(C5)N6)nc(OCC56CCCN5CC(F)C6)nc4c3F)c12` (stereo not given), the viability, T/C (compound 0.0316 µM) is reported as 86.7% [middle of 4 runs], the viability, T/C (compound 0.1 µM) is reported as 70.6% [middle of 4 runs] and the viability, T/C (compound 0.316 µM) is reported as 53.7% [middle of 4 runs]. For the same compound, the viability, T/C (compound 1 µM) was 40.4% [middle of 4 runs], the viability, T/C (compound 3.16 µM) was 35.4% [middle of 4 runs] and the viability, T/C (compound 10 µM) was 27.9% [middle of 4 runs]. The IC50 (curve of compound) was 425 nM [middle of 4 runs].

With `C=CC(=O)N1CCN(c2nc(=O)n(-c3c(C)ccnc3C(C)C)c3nc(-c4c(O)cccc4F)c(F)cc23)C(C)C1` (stereo not given) the viability, T/C (compound 0.0316 µM) was 95.3% [middle of 4 runs], the viability, T/C (compound 0.1 µM) was 84.4% [middle of 4 runs] and the viability, T/C (compound 0.316 µM) was 92.5% [middle of 4 runs]. The viability, T/C (compound 1 µM) was 94.6% [middle of 4 runs], the viability, T/C (compound 3.16 µM) was 91.7% [middle of 4 runs] and the viability, T/C (compound 10 µM) was 56.1% [middle of 4 runs]. The IC50 (curve of compound) was > 10 µM.

`CC1(C)CCC(Nc2ncc(C(F)(F)F)c(-c3c[nH]c4c(P(C)(C)=O)c(C#N)ccc34)n2)CN1` (stereo not given) was tested, and the viability, T/C (compound 0.0316 µM) was 72.4% [middle of 4 runs], the viability, T/C (compound 0.1 µM) was 70.7% [middle of 4 runs] and the viability, T/C (compound 0.316 µM) was 78.8% [middle of 4 runs]. The viability, T/C (compound 1 µM) was 82.7% [middle of 4 runs], the viability, T/C (compound 3.16 µM) was 86.8% [middle of 4 runs] and the viability, T/C (compound 10 µM) was 24% [middle of 4 runs]. For the same compound, the IC50 (curve of compound) was 5.87 µM [middle of 4 runs].

`Cn1ncc(Cl)c1-c1cc(C(=O)NC(CN)Cc2cccc(F)c2)sc1Cl` (stereo not given) was tested, and the viability, T/C (compound 0.0316 µM) was 80.2% [middle of 4 runs], the viability, T/C (compound 0.1 µM) was 55.6% [middle of 4 runs] and the viability, T/C (compound 0.316 µM) was 34% [middle of 4 runs]. The viability, T/C (compound 1 µM) was 21.5% [middle of 4 runs], the viability, T/C (compound 3.16 µM) was 13.1% [middle of 4 runs] and the viability, T/C (compound 10 µM) was 4.48% [middle of 4 runs]. The IC50 (curve of compound) was 0.121 µM and 0.127 µM and 0.155 µM.

With `Cn1cnc2c(F)c(Nc3ccc(Br)cc3Cl)c(C(=O)NOCCO)cc21` + CC(Nc1ccc2c(c1)OCCn1cc(N3C(=O)OCC3C(F)F)nc1-2)C(N)=O the IC50 (curve of first compound, second compound 0.00316 µM) was 0.422 µM, the IC50 (curve of first compound, second compound 0.01 µM) was 0.071 µM and the IC50 (curve of first compound, second compound 0.0316 µM) was < 0.00949 µM. For the same compound, the IC50 (curve of first compound, second compound 0.1 µM) was < 0.00949 µM, the IC50 (curve of first compound, second compound 0.316 µM) was < 0.00949 µM and the IC50 (curve of first compound, second compound 1 µM) was < 0.00949 µM. It also gave a viability, T/C (second compound 0.00316 µM, first compound 0.00949 µM) of 63.8%, a viability, T/C (second compound 0.00316 µM, first compound 0.03 µM) of 71.5% and a viability, T/C (second compound 0.00316 µM, first compound 0.0949 µM) of 64.9%. The viability, T/C (second compound 0.00316 µM, first compound 0.3 µM) was 56.4%, the viability, T/C (second compound 0.00316 µM, first compound 0.949 µM) was 34.3% and the viability, T/C (second compound 0.00316 µM, first compound 3 µM) was 15.4%. The viability, T/C (second compound 0.01 µM, first compound 0.00949 µM) was 60.4%, the viability, T/C (second compound 0.01 µM, first compound 0.03 µM) was 54.8% and the viability, T/C (second compound 0.01 µM, first compound 0.0949 µM) was 46.9%. It also gave a viability, T/C (second compound 0.01 µM, first compound 0.3 µM) of 40.9%, a viability, T/C (second compound 0.01 µM, first compound 0.949 µM) of 23.9% and a viability, T/C (second compound 0.01 µM, first compound 3 µM) of 10.1%. For the same compound, the viability, T/C (second compound 0.0316 µM, first compound 0.00949 µM) was 44.8%, the viability, T/C (second compound 0.0316 µM, first compound 0.03 µM) was 38.7% and the viability, T/C (second compound 0.0316 µM, first compound 0.0949 µM) was 33.9%. For the same compound, the viability, T/C (second compound 0.0316 µM, first compound 0.3 µM) was 26.8%, the viability, T/C (second compound 0.0316 µM, first compound 0.949 µM) was 16.4% and the viability, T/C (second compound 0.0316 µM, first compound 3 µM) was 6.34%. The viability, T/C (second compound 0.1 µM, first compound 0.00949 µM) was 30.6%, the viability, T/C (second compound 0.1 µM, first compound 0.03 µM) was 27.1% and the viability, T/C (second compound 0.1 µM, first compound 0.0949 µM) was 24.2%. For the same compound, the viability, T/C (second compound 0.1 µM, first compound 0.3 µM) was 17.7%, the viability, T/C (second compound 0.1 µM, first compound 0.949 µM) was 9.75% and the viability, T/C (second compound 0.1 µM, first compound 3 µM) was 2.93%. It also gave a viability, T/C (second compound 0.316 µM, first compound 0.00949 µM) of 20.9%, a viability, T/C (second compound 0.316 µM, first compound 0.03 µM) of 18.9% and a viability, T/C (second compound 0.316 µM, first compound 0.0949 µM) of 15.3%. The viability, T/C (second compound 0.316 µM, first compound 0.3 µM) was 11.7%, the viability, T/C (second compound 0.316 µM, first compound 0.949 µM) was 4.97% and the viability, T/C (second compound 0.316 µM, first compound 3 µM) was 1.75%. It also gave a viability, T/C (second compound 1 µM, first compound 0.00949 µM) of 16.9%, a viability, T/C (second compound 1 µM, first compound 0.03 µM) of 13.7% and a viability, T/C (second compound 1 µM, first compound 0.0949 µM) of 12.7%. The viability, T/C (second compound 1 µM, first compound 0.3 µM) was 8.33%, the viability, T/C (second compound 1 µM, first compound 0.949 µM) was 2.91% and the viability, T/C (second compound 1 µM, first compound 3 µM) was 1.25%.

From PubChem BioAssay AID1963986 (Molecular Pharmacology Branch, DTP, NCI, 2024)
